Assays:
[1] = Weight gain of carriers on bubbling nitric oxide gas; type: physicochemical; details: NO gas bubbled 40 hr, 25 °C
Description: This example illustrates one technique for preparing a composition in accordance with one embodiment of the invention. An accurate amount of a carrier (HNC 167-62) (see below) was introduced into a system. The carrier weight used in these experiments was approximately 250 g and the vessel size was 500 ml. The vessel was equipped with a mechanical stirrer, gas inlet, and gas outlet and was previously purged with argon for about an hour. The temperature of the carrier was kept at about 25-30° C. NO gas regulated at 5 psi (1 psi is about 6,900 Pa) and was then introduced at a controlled rate of about 1 bubble/s with continuous stirring. […] After 6 hours, the weight of the carrier had increased by 0.15%, by 12 hours by 0.25%, and by 24 hours by 0.56%. These increases in weight were believed to be significant considering the relative small molecular weight of NO versus the carrier. […] The carrier also can solidify upon cooling if the carrier is initially a solid at lower temperature.
Each carrier was taken in a 500 mL three necked flask equipped with a mechanical stirrer, gas inlet and a gas outlet. The system was purged with argon for one hour at room temperature (25° C.). Then nitric oxide gas was bubbled into the system. Then, nitric oxide gas was bubbled through carrier for stipulated amount of time. The changes in weight and color were noted. […]

[2] = system: micro-capillary blood flow to skin; test: Laser Doppler study with closed Hilltop chamber on forearm, 10,000 ppm NO (Example 5); type: in vivo, human; details: applied to the skin at 1/10% in alcohol
Excerpt: The formulation used in these studies contained nitric oxide dispersed in a lipid matrix. […] Nitric oxide is a very rapid acting molecule, and these studies used a system that employed laser Doppler with a covered chamber. The formulation was placed into the chamber and then attached to the skin by an adhesive layer on the covering. This provided a stable measuring device as determined by multiple normal evaluations of the capillary blood flow without treatment of nitric oxide.
A known positive control, methyl nicotinate, was applied to the skin at a concentration of 1/10% in alcohol. […] The vascular dynamics are such that when the blood vessels dilate physical parameters follow Bernoulli's law. […] The laser Doppler device accurately measured these parameters.
In these studies, the participants were healthy females aged 30 to 55 years. They were in good health as determined by the medical history and were not taking any prescription medications. All study participants read and signed the informed consent statement prior to any study procedures being performed. […]
A Moor Instruments DRT4 Laser Doppler Blood Flow Monitor (Devon, England) was used in these studies. The laser Doppler technique measured blood flow in the microcapillaries of the skin that are close to the skin surface and the blood flow in underlying arterioles and venules that help to regulate skin temperature. […]

[3] = system: capillary circulation of the skin; test: Laser Doppler study of creams in five human subjects (Example 7); type: in vivo; details: positive control formulation containing 0.1% methyl nicotinate
Excerpt: This example illustrates delivery of nitric oxide formulations to five human subjects, using procedures and formulations similar to those discussed in Example 5. Each person served as their own control for the testing. A Moor Instruments Laser Doppler was used to determine circulation. […] The formulations used produce positive, almost immediate results when applied to the skin which, in these studies, was manifested by vasodilatation of the cutaneous vascular system. For each subject, the following creams were applied: a negative control formulation (containing no NO), 0.010 gram of a 10,000 ppm NO formulation, 0.020 gram of a 10,000 ppm NO formulation, and a positive control formulation containing 0.1% methyl nicotinate. The formulations were prepared using procedures similar to those discussed in Example 1.

SMILES | % Wt. gain [1] [%] | Wt. Gain [1] [g] | laser Doppler response of positive control [2] | vasodilatation [3]
OCCCO [1,3-Propanediol, 1,3-propanediol] | 0.09 | 0.16 | – | –
COC(=O)c1cccnc1 [methyl nicotinate] | – | – | rapid response typical of the vasodilator | vasodilatation was observed

— patent publication US9968635B2, “Treatment of skin and soft tissue infection with nitric oxide” (priority 2012, dated 2018)
